Data taken from patent US4472409A, “2-Pyridylmethyl thio(sulfinyl)benzimidazoles with gastric acid secretion inhibiting effects” (Byk Gulden Lomberg Chemische Fabrik Gesellschaft mit …, priority 1981, dated 1984).

Experiments:
[1] = system: gastric secretion (HCl-secretion of the rat stomach); assay: Gastric secretion inhibition (HCl-secretion over 4 hours) in the Shay rat; assay type: in vivo; details: for Gastric secretion (rat), inhibition in % of HCl-secretion: 4 hours; for Gastric secretion (rat), ED25 / ED25: dose reducing HCl secretion (sum 4 hours) by 25% vs control; for ED25 / ED50: Rattus norvegicus, po
Procedure: (§1) The antiulcerogenic action was tested in accordance with the method using the so-called Shay rat: Rats (female, 180 to 200 g, 4 animals per cage on a high grid) which had been fasted for 24 hours were subjected to ulcer provocation by pylorus ligature (under diethyl ether anaesthesia) and oral administration of 100 mg/10 ml/kg of acetylsalicyclic acid. The substances to be tested are administered orally (10 ml/kg) 1 hour before the pylorus ligature. The wound is closed by means of Michel clamps. 4 hours thereafter, the animals are killed under ether anaesthesia by atlas dislocation, and the stomach is removed. The stomach is opened longitudinally and fixed to a cork tile after the amount of gastric juice secreted [volume, and its hydrochloric acid content (titration with sodium hydroxide solution)] has been determined, the number and size (=diameter) of ulcers present are determined with a stereomicroscope with 10-fold magnification. The product of the degree of severity (according to the following rating scale) and the number of ulcers serves as the individual ulcer index. The reduction in the average ulcer index of each treated group compared with that of the control group (=100%) serves as a measure of the antiulcerogenic effect. The ED25 and the ED50 designate the doses which reduce the average ulcer index and the gastric secretion by 25 and 50%.

[2] = system: gastric ulcers provoked by a pylorus ligature (Shay rat); assay: Protective action on the stomach: antiulcerogenic test in the Shay rat (pylorus ligature + oral 100 mg/kg acetylsalicylic acid), reduction of ulcer index; assay type: in vivo; details: for Protective action on the stomach (rat), reduction in the ulcer index: 1 hour before pylorus ligature; for Protective action on the stomach (rat), ED25 / ED25: dose reducing ulcer index by 25% vs control; for Protective action on the stomach (rat), ED25 / Protective action on the stomach (rat), ED50 / ED25 / ED50: logarithmic interpolation; for Protective action on the stomach (rat), ED50 / ED50: dose reducing ulcer index by 50% vs control; for ED25 / ED50: Rattus norvegicus, po
Procedure: The effect of the compounds according to the invention on the formation of gastric ulcers provoked by a pylorus ligature (4 hours, so-called Shay rat) and oral administration of 100 mg/kg acetylsalicylic acid and on the inhibition of gastric secretion in rats during 4 hours is shown in the following table:
as §1, with “index.” for “index. The reduction in the average ulcer index of each treated group compared with that of the control group (=100%) serves as a measure of the antiulcerogenic effect. The ED25 and the ED50 designate the doses which reduce the average ulcer index and the gastric secretion by 25 and 50%.”
The reduction in the average ulcer index of each treated group compared with that of the control group (=100%) serves as a measure of the antiulcerogenic effect. The ED25 and the ED50 designate the doses which reduce the average ulcer index and the gastric secretion by 25 and 50%.

[3] = dose reducing HCl secretion (sum 4 hours) by 50% vs control, logarithmic interpolation

| Molecule | Gastric secretion (rat), inhibition in % of HCl-secretion ([1]; dose 0.1 mg/kg p.o.) | Gastric secretion (rat), inhibition in % of HCl-secretion ([1]; dose 0.3 mg/kg p.o.) [%] | Gastric secretion (rat), inhibition in % of HCl-secretion ([1]; dose 1.0 mg/kg p.o.) [%] | Gastric secretion (rat), inhibition in % of HCl-secretion ([1]; dose 3.0 mg/kg p.o.) [%] | Gastric secretion (rat), ED25 ([1]; logarithmic interpolation) | Protective action on the stomach (rat), reduction in the ulcer index ([2]; dose 0.1 mg/kg p.o.) | Protective action on the stomach (rat), reduction in the ulcer index ([2]; dose 0.3 mg/kg p.o.) [%] | Protective action on the stomach (rat), reduction in the ulcer index ([2]; dose 1.0 mg/kg p.o.) [%] | Protective action on the stomach (rat), reduction in the ulcer index ([2]; dose 3.0 mg/kg p.o.) [%] | Protective action on the stomach (rat), ED25 [2] | Protective action on the stomach (rat), ED50 [2] | Gastric secretion (rat), ED50 [1, 3] | ED25 ([1]; logarithmic interpolation) [mg/kg] | ED50 [1, 3] [mg/kg] | ED25 [2] [mg/kg] | ED50 [2] [mg/kg] | Gastric secretion (rat), inhibition in % of HCl-secretion ([1]; dose 10.0 mg/kg p.o.) [%] | Protective action on the stomach (rat), reduction in the ulcer index ([2]; dose 10.0 mg/kg p.o.) [%] |
| --- | --- | --- | --- | --- | --- | --- | --- | --- | --- | --- | --- | --- | --- | --- | --- | --- | --- | --- |
| 4-Trifluoromethyl-2-[(4-methoxy-2-pyridylmethyl)sulfinyl]-(1H)-benzimidazole [Example 1] | 5% | 9 | 15 | 22 | ≥ 3.0 mg/kg, p.o. | +1% | 12 | 27 | 58 | 0.9 mg/kg, p.o. | 2.3 mg/kg, p.o. |  |  |  |  |  |  |  |
| 5-Trifluoromethyl-2-[(4-methoxy-3,5-dimethyl-2-pyridylmethyl)thio]-(1H)-benzimidazole [Example 8] |  |  | 12 | 50 | 1.5 mg/kg, p.o. |  |  | 50 | 63 | < 1.0 mg/kg, p.o. | 1.0 mg/kg, p.o. | 3.0 mg/kg, p.o. |  |  |  |  |  |  |
| COc1ccnc(C[S+]([O-])c2nc3cc(C(F)(F)F)ccc3[nH]2)c1 (stereo not drawn) [Serial No. 2, 5-Trifluoromethyl-2-[(4-methoxy-2-pyridylmethyl)sulfinyl]-(1H)-benzimidazole] | 0% | 18 | 60 | 84 |  | 6% | 29 | 88 | 100 |  |  |  | 0.35 | 0.75 | 0.24 | 0.45 |  |  |
| COc1ccnc(C[S+]([O-])c2nc3cc(C(F)(F)F)ccc3[nH]2)c1C (stereo not drawn) [Serial No. 3, 5-Trifluoromethyl-2-[(4-methoxy-3-methyl-2-pyridylmethyl)sulfinyl]-(1H)--benzimidazole] |  | 40 | 88 |  |  |  | 25 | 98 |  |  |  |  | < 0.3 | 0.4 | 0.3 | 0.45 | 92 | 100 |
| COc1c(C)cnc(C[S+]([O-])c2nc3cc(C(F)(F)F)ccc3[nH]2)c1C (stereo not drawn) [Serial No. 4, 5-Trifluoromethyl-2-[(4-methoxy-3,5-dimethyl-2-pyridylmethyl)sulfinyl]-(1H)-benzimidazole] | +5% | 10 | 50 | 75 |  | 1% | 30 | 69 | 89 |  |  |  | 0.48 | 1 | 0.24 | 0.55 |  |  |
| COc1ccnc(CSc2nc3cc(C(F)(F)F)ccc3[nH]2)c1 [Serial No. 6, 5-Trifluoromethyl-2-[(4-methoxy-2-pyridylmethyl)thio]-(1H)-benzimidazole] |  |  | 15 | 70 |  |  |  | 27 | 97 |  |  |  | 1.2 | 2 | ~1 | 1.4 |  |  |
| COc1ccnc(CSc2nc3cc(C(F)(F)F)ccc3[nH]2)c1C [Serial No. 7, 5-Trifluoromethyl-2-[(4-methoxy-3-methyl-2-pyridylmethyl)thio]-(1H)-benzimidazole] |  | 26 | 85 |  |  |  | 30 | 94 |  |  |  |  | 0.3 | 0.5 | ≤ 0.3 | 0.5 |  |  |
